Here are results for two compounds from ChEMBL document CHEMBL5647694, “Novel orally bioavailable EZH1/2 dual inhibitors with greater antitumor efficacy than an EZH2 selective inhibitor” (Cancer Sci, 2017).

The target in assay [1] is Casein kinase I isoform gamma-2 (Homo sapiens) (UniProt P78368). Put plainly: Inhibition of N-terminal GST-fused full length human CK1gamma2 (1 to 415 residues) expressed in baculovirus expression system using CKtide as substrate at 1 uM in presence of ATP by Mobility shift assay.
Casein kinase I isoform gamma-2 (Homo sapiens), sequence (P78368 whole entry, looked up, the tested form may be a part, canonical isoform): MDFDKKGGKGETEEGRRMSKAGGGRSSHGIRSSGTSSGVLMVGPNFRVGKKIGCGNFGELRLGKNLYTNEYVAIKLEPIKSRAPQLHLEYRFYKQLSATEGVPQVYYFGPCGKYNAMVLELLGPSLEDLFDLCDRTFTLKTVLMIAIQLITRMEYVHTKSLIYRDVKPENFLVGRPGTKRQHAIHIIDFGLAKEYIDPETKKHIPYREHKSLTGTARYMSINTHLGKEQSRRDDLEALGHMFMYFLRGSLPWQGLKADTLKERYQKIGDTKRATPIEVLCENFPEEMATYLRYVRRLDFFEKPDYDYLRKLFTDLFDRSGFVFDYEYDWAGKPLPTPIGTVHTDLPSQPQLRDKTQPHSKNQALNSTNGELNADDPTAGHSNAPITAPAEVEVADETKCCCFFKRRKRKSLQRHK
Assay [2] has as its target TRAF2 and NCK-interacting protein kinase (Homo sapiens) (UniProt Q9UKE5). Put plainly: Inhibition of N-terminal GST-fused human TNIK catalytic domain (1 to 314 residues) expressed in baculovirus expression system using Moesin-derived peptide as substrate at 1 uM in presence of ATP by Mobility shift assay.
Assay [3] has as its target Serine/threonine-protein kinase MRCK alpha (Homo sapiens) (UniProt Q5VT25). Put plainly: Inhibition of N-terminal GST-fused truncated human MRCKalpha (1 to 574 residues) expressed in baculovirus expression system using DAPK1tide as substrate at 1 uM in presence of ATP by Mobility shift assay.
Assay [4] deals with Serine/threonine-protein kinase DCLK2 (Homo sapiens) (UniProt Q8N568). Briefly: Inhibition of N-terminal GST-fused truncated human DCAMKL2 (1 to 691 residues) expressed in baculovirus expression system using GS peptide as substrate at 1 uM in presence of ATP by Mobility shift assay.
Assay [5] has as its target Aurora kinase A (Homo sapiens) (UniProt O14965). Briefly: Inhibition of N-terminal GST-fused full length human AurA (1 to 403 residues) expressed in baculovirus-infected Sf21 cells using Kemptide as substrate at 1 uM in presence of ATP by Mobility shift assay.
Assay [6] has as its target Calcium/calmodulin-dependent protein kinase type II subunit alpha (Homo sapiens) (UniProt Q9UQM7). Briefly: Inhibition of N-terminal GST-fused full length human CAMK2a (1 to 478 residues) expressed in baculovirus-infected Sf21 cells using GS peptide as substrate at 1 uM in presence of ATP by Mobility shift assay.
Assay [7] has as its target Myosin light chain kinase 2, skeletal/cardiac muscle (Homo sapiens) (UniProt Q9H1R3). Put plainly: Inhibition of N-terminal GST-fused full length human skMLCK (1 to 596 residues) expressed in baculovirus expression system using MLCtide as substrate at 1 uM in presence of ATP by Mobility shift assay.
Assay [8] deals with Calcium/calmodulin-dependent protein kinase type II subunit gamma (Homo sapiens) (UniProt Q13555). Briefly: Inhibition of N-terminal GST-tagged full length human CAMK2g (1 to 518 residues) expressed in baculovirus-infected Sf21 cells using GS peptide as substrate at 1 uM in presence of ATP by Mobility shift assay.
Calcium/calmodulin-dependent protein kinase type II subunit gamma (Homo sapiens), sequence (Q13555 whole entry, the tested form may be a part): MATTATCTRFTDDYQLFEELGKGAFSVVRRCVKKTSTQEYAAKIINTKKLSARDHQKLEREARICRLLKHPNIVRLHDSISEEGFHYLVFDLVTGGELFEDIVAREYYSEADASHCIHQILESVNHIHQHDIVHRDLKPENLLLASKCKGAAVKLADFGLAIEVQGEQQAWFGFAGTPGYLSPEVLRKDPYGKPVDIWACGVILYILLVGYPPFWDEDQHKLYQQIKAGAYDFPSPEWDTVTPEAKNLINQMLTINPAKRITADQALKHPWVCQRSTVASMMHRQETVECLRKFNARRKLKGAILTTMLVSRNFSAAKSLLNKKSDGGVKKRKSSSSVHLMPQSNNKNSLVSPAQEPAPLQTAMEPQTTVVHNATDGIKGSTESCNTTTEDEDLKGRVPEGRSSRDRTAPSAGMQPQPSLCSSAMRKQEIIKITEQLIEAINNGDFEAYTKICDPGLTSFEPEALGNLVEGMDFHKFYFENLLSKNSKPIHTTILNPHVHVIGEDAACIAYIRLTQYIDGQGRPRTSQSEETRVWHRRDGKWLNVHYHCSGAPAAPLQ
Assay [9] concerns the target Serine/threonine-protein kinase D1 (Homo sapiens) (UniProt Q15139). Briefly: Inhibition of N-terminal GST-fused full length human PKD1 (1 to 912 residues) expressed in baculovirus expression system using GS peptide as substrate at 1 uM in presence of ATP by Mobility shift assay.
Assay [10] concerns the target Serine/threonine-protein kinase WNK2 (Homo sapiens) (UniProt Q9Y3S1). Put plainly: Inhibition of N-terminal GST-fused human WNK2 catalytic domain (166 to 489 residues) expressed in baculovirus expression system using SPAKtide as substrate at 1 uM in presence of ATP by Mobility shift assay.
The target in assay [11] is Serine/threonine-protein kinase PAK 4 (Homo sapiens) (UniProt O96013). Briefly: Inhibition of N-terminal GST-fused full length human PAK4 (1 to 591 residues) expressed in baculovirus expression system using SGKtide as substrate at 1 uM in presence of ATP by Mobility shift assay.
Assay [12] concerns the target Eukaryotic elongation factor 2 kinase (Homo sapiens) (UniProt O00418). Put plainly: Inhibition of N-terminal GST-fused full length human EEF2K (1 to 725 residues) expressed in Escherichia coli expression system using EEF2Ktide as substrate at 1 uM in presence of ATP by Mobility shift assay.
Assay [13] deals with Epithelial discoidin domain-containing receptor 1 (Homo sapiens) (UniProt Q08345). Briefly: Inhibition of N-terminal GST-fused human DDR1 cytoplasmic domain (444 to 876 residues) expressed in baculovirus-infected Sf21 cells using IRS1 as substrate at 1 uM in presence of ATP by Mobility shift assay.
Assay [14] concerns the target Tyrosine-protein kinase ABL1 (Homo sapiens) (UniProt P00519). Put plainly: Inhibition of N-terminal His-tagged wild type human ABL (2 to 1130 residues) expressed in baculovirus-infected Sf21 cells using ABLtide as substrate at 1 uM in presence of ATP by Mobility shift assay.
Assay [15] concerns the target SRSF protein kinase 3 (Homo sapiens) (UniProt Q9UPE1). Put plainly: Inhibition of N-terminal GST-fused full length human MSSK1 (1 to 567 residues) expressed in baculovirus expression system using DYRKtide-F as substrate at 1 uM in presence of ATP by Mobility shift assay.
Assay [16] concerns the target Fibroblast growth factor receptor 1 (Homo sapiens) (UniProt P11362). Put plainly: Inhibition of N-terminal GST-fused human FGFR1 cytoplasmic domain (398 to 822 residues ) expressed in baculovirus-infected Sf21 cells using CSKtide as substrate at 1 uM in presence of ATP by Mobility shift assay.
Assay [17] deals with Mitogen-activated protein kinase 7 (Homo sapiens) (UniProt Q13164). Briefly: Inhibition of N-terminal GST-fused human ERK5 catalytic domain (1 to 398 residues) expressed in Escherichia coli expression system using EGFR-derived peptide as substrate at 1 uM in presence of ATP by Mobility shift assay.
Assay [18] is described as follows: Inhibition of N-terminal GST-fused full length human MGC42105 (1 to 436 residues) expressed in baculovirus expression system using CHKtide as substrate at 1 uM in presence of ATP by Mobility shift assay. The note with it: condition cancer.
Assay [19] concerns the target Ephrin type-A receptor 4 (Homo sapiens) (UniProt P54764). Put plainly: Inhibition of N-terminal GST-fused human EPHA4 cytoplasmic domain (586 to 986 residues) expressed in baculovirus-infected Sf21 cells using Blk/Lyntide as substrate at 1 uM in presence of ATP by Mobility shift assay.
The target of assay [20] is Tyrosine-protein kinase HCK (Homo sapiens) (UniProt P08631). Put plainly: Inhibition of N-terminal GST-fused truncated human HCK (25 to 526 residues) expressed in baculovirus-infected Sf21 cells using Srctide as substrate at 1 uM in presence of ATP by Mobility shift assay.
In assay [21] the target is cGMP-dependent protein kinase 1 (Homo sapiens) (UniProt Q13976). Put plainly: Inhibition of N-terminal GST-fused human full length […] (1 to 686 residues) expressed in baculovirus expression system using Kemptide as substrate at 1 uM in presence of ATP by Mobility shift assay.
The target of assay [22] is [Pyruvate dehydrogenase (acetyl-transferring)] kinase isozyme 2, mitochondrial (Homo sapiens) (UniProt Q15119). Put plainly: Inhibition of N-terminal GST-fused full length human PDHK2 (1 to 407 residues) expressed in baculovirus expression system using PDHKtide as substrate at 1 uM in presence of ATP by Mobility shift assay.
Assay [23] concerns the target Serine/threonine-protein kinase Chk2 (Homo sapiens) (UniProt O96017). Put plainly: Inhibition of N-terminal GST-fused full length human CHK2 (1 to 543 residues) expressed in baculovirus expression system using CHKtide as substrate at 1 uM in presence of ATP by Mobility shift assay.

Aurora kinase A (Homo sapiens), sequence (O14965 whole entry, the tested form may be a part): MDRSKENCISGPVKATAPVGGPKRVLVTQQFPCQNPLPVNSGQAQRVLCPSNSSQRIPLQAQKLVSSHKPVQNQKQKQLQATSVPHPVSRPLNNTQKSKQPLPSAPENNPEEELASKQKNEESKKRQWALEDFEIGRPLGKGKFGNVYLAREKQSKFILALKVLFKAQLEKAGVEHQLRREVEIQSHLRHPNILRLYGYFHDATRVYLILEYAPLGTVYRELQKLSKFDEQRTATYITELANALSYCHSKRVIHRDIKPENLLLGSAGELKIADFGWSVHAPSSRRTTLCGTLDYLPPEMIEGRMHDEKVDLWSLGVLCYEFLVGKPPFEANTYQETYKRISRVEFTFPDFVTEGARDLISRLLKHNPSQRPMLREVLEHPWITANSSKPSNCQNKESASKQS
Fibroblast growth factor receptor 1 (Homo sapiens), sequence (P11362 22-822 limits assumed): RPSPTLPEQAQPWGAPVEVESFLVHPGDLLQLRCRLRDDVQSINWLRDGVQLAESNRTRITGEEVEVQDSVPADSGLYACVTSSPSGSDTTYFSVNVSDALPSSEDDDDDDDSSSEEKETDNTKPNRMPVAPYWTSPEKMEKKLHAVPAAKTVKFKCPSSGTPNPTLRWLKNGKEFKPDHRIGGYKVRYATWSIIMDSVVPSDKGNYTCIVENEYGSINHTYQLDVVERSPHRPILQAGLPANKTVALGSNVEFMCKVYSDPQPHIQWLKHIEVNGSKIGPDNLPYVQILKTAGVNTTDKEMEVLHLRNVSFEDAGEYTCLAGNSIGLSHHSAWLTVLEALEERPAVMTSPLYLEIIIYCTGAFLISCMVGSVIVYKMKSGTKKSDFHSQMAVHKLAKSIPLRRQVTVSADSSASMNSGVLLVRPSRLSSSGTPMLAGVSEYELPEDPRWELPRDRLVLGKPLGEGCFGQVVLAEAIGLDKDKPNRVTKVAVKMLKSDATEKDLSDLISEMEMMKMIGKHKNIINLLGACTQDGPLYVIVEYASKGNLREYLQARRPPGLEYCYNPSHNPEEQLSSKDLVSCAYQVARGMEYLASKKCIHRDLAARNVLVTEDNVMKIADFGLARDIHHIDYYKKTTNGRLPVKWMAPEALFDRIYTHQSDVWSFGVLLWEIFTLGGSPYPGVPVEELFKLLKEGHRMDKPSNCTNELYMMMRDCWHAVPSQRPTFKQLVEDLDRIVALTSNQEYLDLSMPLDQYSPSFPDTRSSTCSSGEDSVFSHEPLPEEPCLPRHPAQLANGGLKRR
Ephrin type-A receptor 4 (Homo sapiens), sequence (P54764 whole entry, the tested form may be a part): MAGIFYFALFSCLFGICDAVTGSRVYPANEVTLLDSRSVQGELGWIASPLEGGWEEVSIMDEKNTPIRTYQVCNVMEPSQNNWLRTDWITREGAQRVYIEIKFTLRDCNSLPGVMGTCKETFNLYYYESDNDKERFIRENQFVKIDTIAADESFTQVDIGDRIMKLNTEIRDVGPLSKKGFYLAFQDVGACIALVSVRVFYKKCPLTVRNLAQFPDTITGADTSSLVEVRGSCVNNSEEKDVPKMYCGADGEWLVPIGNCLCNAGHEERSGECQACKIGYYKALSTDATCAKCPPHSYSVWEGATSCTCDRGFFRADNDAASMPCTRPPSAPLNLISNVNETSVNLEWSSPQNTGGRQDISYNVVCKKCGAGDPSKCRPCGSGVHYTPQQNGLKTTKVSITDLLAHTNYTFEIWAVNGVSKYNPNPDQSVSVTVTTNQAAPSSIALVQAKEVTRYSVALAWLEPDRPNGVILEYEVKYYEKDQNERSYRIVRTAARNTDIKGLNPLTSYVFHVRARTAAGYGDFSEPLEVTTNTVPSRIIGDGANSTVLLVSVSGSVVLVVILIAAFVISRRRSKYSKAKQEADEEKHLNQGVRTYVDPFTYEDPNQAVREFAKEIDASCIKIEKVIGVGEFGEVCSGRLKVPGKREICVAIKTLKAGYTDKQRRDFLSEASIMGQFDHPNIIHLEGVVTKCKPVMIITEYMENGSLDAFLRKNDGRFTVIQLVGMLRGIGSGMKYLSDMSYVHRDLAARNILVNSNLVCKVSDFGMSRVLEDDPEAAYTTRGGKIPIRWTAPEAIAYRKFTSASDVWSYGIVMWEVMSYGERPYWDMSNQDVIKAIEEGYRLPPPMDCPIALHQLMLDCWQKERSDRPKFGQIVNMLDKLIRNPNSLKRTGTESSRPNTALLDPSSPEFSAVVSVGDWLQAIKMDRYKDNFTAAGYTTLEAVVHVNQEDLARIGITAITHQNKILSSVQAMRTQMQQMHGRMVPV
Tyrosine-protein kinase ABL1 (Homo sapiens), sequence (P00519 whole entry, the tested form may be a part): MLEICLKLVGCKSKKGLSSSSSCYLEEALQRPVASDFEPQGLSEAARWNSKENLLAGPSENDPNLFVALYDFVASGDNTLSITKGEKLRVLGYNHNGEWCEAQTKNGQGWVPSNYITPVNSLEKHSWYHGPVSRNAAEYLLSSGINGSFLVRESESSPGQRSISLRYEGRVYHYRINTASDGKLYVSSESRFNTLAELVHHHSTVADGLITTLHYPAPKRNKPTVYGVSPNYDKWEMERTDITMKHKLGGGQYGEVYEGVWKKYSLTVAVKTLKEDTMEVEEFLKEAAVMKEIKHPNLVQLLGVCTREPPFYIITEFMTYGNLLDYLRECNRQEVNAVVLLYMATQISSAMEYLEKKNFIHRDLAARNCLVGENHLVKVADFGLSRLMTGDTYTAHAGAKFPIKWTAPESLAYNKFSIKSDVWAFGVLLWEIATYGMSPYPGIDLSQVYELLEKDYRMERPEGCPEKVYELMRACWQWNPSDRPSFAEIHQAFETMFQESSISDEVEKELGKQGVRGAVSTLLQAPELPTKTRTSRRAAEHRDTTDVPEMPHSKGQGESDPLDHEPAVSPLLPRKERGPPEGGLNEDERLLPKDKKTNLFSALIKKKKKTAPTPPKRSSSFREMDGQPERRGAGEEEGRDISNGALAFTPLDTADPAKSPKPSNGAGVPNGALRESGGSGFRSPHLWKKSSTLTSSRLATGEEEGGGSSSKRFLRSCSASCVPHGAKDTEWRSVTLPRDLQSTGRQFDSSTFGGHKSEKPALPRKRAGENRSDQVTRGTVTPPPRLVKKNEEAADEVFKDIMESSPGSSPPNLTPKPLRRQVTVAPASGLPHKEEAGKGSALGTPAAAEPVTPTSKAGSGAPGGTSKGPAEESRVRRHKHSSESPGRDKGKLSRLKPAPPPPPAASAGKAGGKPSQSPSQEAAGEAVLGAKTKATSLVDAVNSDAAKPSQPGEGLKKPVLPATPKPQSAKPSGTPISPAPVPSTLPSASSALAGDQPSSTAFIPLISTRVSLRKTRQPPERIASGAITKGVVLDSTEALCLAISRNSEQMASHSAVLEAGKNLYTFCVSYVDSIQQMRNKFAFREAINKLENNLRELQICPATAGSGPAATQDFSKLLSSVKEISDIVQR
Serine/threonine-protein kinase Chk2 (Homo sapiens), sequence (O96017 whole entry, the tested form may be a part): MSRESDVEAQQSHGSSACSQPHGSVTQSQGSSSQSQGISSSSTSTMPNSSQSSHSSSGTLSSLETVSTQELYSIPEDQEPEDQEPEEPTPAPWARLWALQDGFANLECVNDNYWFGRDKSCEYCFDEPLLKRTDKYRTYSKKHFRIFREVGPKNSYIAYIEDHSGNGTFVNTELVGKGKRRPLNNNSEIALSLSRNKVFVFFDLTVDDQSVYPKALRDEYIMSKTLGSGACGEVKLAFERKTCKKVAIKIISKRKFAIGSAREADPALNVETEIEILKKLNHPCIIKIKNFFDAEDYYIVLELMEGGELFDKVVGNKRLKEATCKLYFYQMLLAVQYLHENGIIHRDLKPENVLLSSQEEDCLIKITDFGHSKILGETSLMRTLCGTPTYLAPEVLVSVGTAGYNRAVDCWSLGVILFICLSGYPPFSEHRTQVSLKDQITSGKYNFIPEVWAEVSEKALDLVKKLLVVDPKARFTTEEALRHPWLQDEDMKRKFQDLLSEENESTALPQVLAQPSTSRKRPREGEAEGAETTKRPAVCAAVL

As a reminder, the inhibition is the change of the read-out against control, counted positive when it falls. For `Cc1cc(C)c(CNC(=O)c2cc(Br)c3c(c2C)O[C@@](C)([C@H]2CC[C@H](N(C)C)CC2)O3)c(=O)[nH]1`, the inhibition in assay [1] is -2.8%; in assay [2] it was 1.1%; in [3], 2.7%; in assay [4] it was -2.7%; in assay [5], 0.6%; in assay [6], -1.1%. Besides, the inhibition was 2.4% in assay [7]; -4.8% in [8]; -6.9% in assay [9]; -2.1% in assay [10]; -1.8% in [11]; -3% in [12]. Also, the inhibition in assay [13] was -3.3%; in assay [14], -5.7%; in [15], -6.3%; in assay [16] it was -2.9%; in assay [17], -2.5%; in assay [19] it was -4.3%. Further, the inhibition in [20] is -2.5%; in assay [21], -4.3%; in assay [22], 1.6%; in assay [23] it was 0.7%. Besides, in assay [18], the inhibition at 1 µM is -1.7%.
On to `Cc1cc(C)c(CNC(=O)c2cc(Cl)c3c(c2C)O[C@@](C)([C@H]2CC[C@H](N(C)C)CC2)O3)c(=O)[nH]1` [VALEMETOSTAT], for which the inhibition in [1] was -5.8%; in assay [2] it was 0.3%; in assay [3], 0.8%; in assay [4] it was -5.4%; in [5], -0.5%; in [6], -2.8%. For the same compound, the inhibition in assay [7] was -1.6%; in assay [8], -5.4%; in assay [9], -6.9%; in assay [10], -3.7%; in assay [11], 0.1%; in assay [12], -0.3%. The inhibition is -3.7% in assay [13]; -8% in assay [14]; -5.4% in assay [15]; -4.3% in [16]; -2.3% in assay [17]; -3% in assay [19]. In addition, the inhibition is -4.2% in [20], -2.1% in assay [21], 1.4% in assay [22] and -2.2% in assay [23]. In [18], the inhibition at 1 µM was -0.3%.
